Reference: patent US9598418B2, “Substituted phthalazin-1 (2H)-one derivatives as selective inhibitors of poly (ADP-ribose) polymerase-1” (CADILA HEALTHCARE LIMITED, priority 2012, dated 2017)
Structures can show the parent of a compound that is named as a salt.

molecular target: T1, PARP-1 (Homo sapiens, UniProt P09874); assay: PARP-1 inhibitory activity, HT universal colorimetric PARP assay kit (Trevigen); format: biochemical; details: estimation as calculated from a 4 point dose response curve; read-out: PARP-1 activity in vitro IC50
T1 construct: purchased Trevigen
Procedure: The compounds were tested for PARP-1 inhibitory activity by using HT universal colorimetric PARP assay kit obtained from Trevigen, following manufacturer's protocol.

T1 sequence (P09874 whole entry): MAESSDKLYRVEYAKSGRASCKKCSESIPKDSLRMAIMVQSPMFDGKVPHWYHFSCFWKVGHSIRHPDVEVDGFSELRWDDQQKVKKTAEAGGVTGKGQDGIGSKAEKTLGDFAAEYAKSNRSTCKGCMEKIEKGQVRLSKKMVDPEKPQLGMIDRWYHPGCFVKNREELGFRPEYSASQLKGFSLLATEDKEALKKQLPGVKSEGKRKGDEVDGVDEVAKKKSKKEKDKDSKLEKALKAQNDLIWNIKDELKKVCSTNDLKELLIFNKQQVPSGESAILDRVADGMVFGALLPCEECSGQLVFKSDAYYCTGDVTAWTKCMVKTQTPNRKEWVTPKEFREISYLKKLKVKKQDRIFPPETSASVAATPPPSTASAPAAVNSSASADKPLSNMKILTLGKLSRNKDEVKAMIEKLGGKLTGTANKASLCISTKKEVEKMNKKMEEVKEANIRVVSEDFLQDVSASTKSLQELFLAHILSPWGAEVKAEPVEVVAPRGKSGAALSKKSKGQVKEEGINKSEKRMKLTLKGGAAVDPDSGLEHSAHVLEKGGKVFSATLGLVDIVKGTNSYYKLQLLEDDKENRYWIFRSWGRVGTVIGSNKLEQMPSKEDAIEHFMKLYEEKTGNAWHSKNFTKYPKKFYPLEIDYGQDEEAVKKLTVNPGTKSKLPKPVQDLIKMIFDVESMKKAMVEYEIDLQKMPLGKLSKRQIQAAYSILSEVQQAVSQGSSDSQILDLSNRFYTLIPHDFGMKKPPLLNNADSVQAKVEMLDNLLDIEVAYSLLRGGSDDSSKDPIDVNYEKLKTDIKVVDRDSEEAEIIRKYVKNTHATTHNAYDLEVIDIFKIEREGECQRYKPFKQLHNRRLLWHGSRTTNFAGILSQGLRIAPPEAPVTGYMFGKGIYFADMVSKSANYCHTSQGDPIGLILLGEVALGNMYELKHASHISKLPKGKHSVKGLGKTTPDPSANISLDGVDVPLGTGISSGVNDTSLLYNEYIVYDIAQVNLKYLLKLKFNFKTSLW

Row | Compound | IC50
1 | CC(C)n1cc2c(n1)CN(C(=O)c1cc(Cc3n[nH]c(=O)c4ccccc34)ccc1F)C2 [Compound 45, 4-(4-fluoro-3-(2-isopropyl-2,4,5,6-tetrahydropyrrolo[3,4-c]pyrazole-5-carbonyl)benzyl) phthalazin-1(2H)-one] | 13.8 nM
2 | COc1cccc(CN2CC3CN(C(=O)c4cc(Cc5n[nH]c(=O)c6ccccc56)ccc4F)CC3C2)n1 (centres unmarked) [Compound 26] | 36 nM
3 | O=C(c1cc(Cc2n[nH]c(=O)c3ccccc23)ccc1F)N1Cc2cn[nH]c2C1 [Compound 3, 4-(4-fluoro-3-(1,4,5,6-tetrahydropyrrolo[3,4-c]pyrazole-5-carbonyl)benzyl) phthalazin-1 (2H)-one] | 14.6 nM
4 | Cn1ncc2c1CN(C(=O)c1cc(Cc3n[nH]c(=O)c4ccccc34)ccc1F)C2 [Compound 54, 4-(4-fluoro-3-(1-methyl-1,4,5,6-tetrahydropyrrolo[3,4-c]pyrazole-5-carbonyl)benzyl) phthalazin-1 (2H)-one benzenesulfonate] | 15.4 nM
5 | O=C(c1cc(Cc2n[nH]c(=O)c3ccccc23)ccc1F)N1CC2CN(CC3CC3)CC2C1 (centres unmarked) [Compound 6, 4-(3-(5-(cyclopropylmethyl)octahydropyrrolo[3,4-c]pyrrole-2-carbonyl)-4-fluorobenzyl)phthalazin-1(2H)-one] | 46.7 nM
6 | O=C(c1cc(Cc2n[nH]c(=O)c3ccccc23)ccc1F)N1CC2CN(c3ccccc3)CC2C1 (centres unmarked) [Compound 32, 4-(4-fluoro-3-(5-phenyloctahydropyrrolo[3,4-c]pyrrole-2-carbonyl)benzyl)phthalazin-1(2H)-one] | 11.5 nM
7 | COCCN1CC2CN(C(=O)c3cc(Cc4n[nH]c(=O)c5ccccc45)ccc3F)CC2C1 (centres unmarked) [Compound 47, 4-(4-fluoro-3-(5-(2-methoxyethyl)octahydropyrrolo[3,4-c]pyrrole-2-carbonyl)benzyl) phthalazin-1 (2H)-one] | 48.3 nM
8 | O=C1C[C@@H]2CN(C(=O)c3cc(Cc4n[nH]c(=O)c5ccccc45)ccc3F)C[C@@H]2C1 [Compound 39, 4-(4-fluoro-3-((3 aR,6aS)-5-oxooctahydrocyclopenta[c]pyrrole-2-carbonyl)benzyl) phthalazin-1 (2H)-one] | 54.5 nM
9 | O=C(c1cc(Cc2n[nH]c(=O)c3ccccc23)ccc1F)N1CC2=C(C1)CS(=O)(=O)C2 [Compound 29, 4-(3-(2,2-dioxido-3,4,5,6-tetrahydro-1H-thieno[3,4-c]pyrrole-5-carbonyl)-4-fluorobenzyl)phthalazin-1(2H)-one] | 18.4 nM
10 | O=C(c1cc(Cc2n[nH]c(=O)c3ccccc23)ccc1F)N1Cc2cnn(C(=O)C3CC3)c2C1 [Compound 12, 4-(3-(1-(cyclopropanecarbonyl)-1,4,5,6-tetrahydropyrrolo[3,4-c]pyrazole-5-carbonyl)-4-fluorobenzyl)phthalazin-1(2H)-one] | 14.1 nM
11 | CN1C(=O)C2CN(C(=O)c3cc(Cc4n[nH]c(=O)c5ccccc45)ccc3F)CC2C1=O (centres unmarked) [Compound 27, 5-(2-fluoro-5-((4-oxo-3,4-dihydrophthalazin-1-yl)methyl)benzoyl)-2-methyl tetrahydropyrrolo[3,4-c]pyrrole-1,3(2H,3aH)-dione] | 12.5 nM
12 | O=C(c1cc(Cc2n[nH]c(=O)c3ccccc23)ccc1F)N1CC2CN(CC(F)(F)F)CC2C1 (centres unmarked) [Compound 7, 4-(4-fluoro-3-(5-(2,2,2-trifluoroethyl)octahydropyrrolo[3,4-c]pyrrole-2-carbonyl)benzyl)phthalazin-1 (2H)-one] | 38.6 nM
13 | Mixture of 1 & 2 Ethyl 4-(3-(2,4,5,6-tetrahydropyrrolo[3,4-c]pyrazole-5-carbonyl)-4-fluorobenzyl)phthalazin-1(2H)-one [Compound 40] | 9.9 nM
14 | O=C(c1cc(Cc2n[nH]c(=O)c3ccccc23)ccc1F)N1CC2CN(Cc3ccccc3F)CC2C1 (centres unmarked) [Compound 25, 4-(4-fluoro-3-(5-(2-fluorobenzyl)octahydropyrrolo[3,4-c]pyrrole-2-carbonyl)benzyl) phthalazin-1(2H)-one] | 27.8 nM
15 | Mixture of (1 & 2 isopropyl) 4-(4-fluoro-3-(1,4,5,6-tetrahydropyrrolo[3,4-c]pyrazole-5-carbonyl)benzyl)phthalazin-1(2H)-one [Compound 44] | 19.9 nM
16 | O=C1NC(=O)C2CN(C(=O)c3cc(Cc4n[nH]c(=O)c5ccccc45)ccc3F)CC12 (centres unmarked) [Compound 22, 5-(2-fluoro-5-((4-oxo-3,4-dihydrophthalazin-1-yl)methyl)benzoyl)tetrahydropyrrolo[3,4-c]pyrrole-1,3(2H,3aH)-dione] | 20.2 nM
17 | O=C(c1cc(Cc2n[nH]c(=O)c3ccccc23)ccc1F)N1CC2CN(Cc3ccccc3)CC2C1 (single isomer, unassigned) [Compound 1, 4-(3-(5-benzyloctahydropyrrolo[3,4-c]pyrrole-2-carbonyl)-4-fluorobenzyl)phthalazin-1(2H)-one] | 11.5 nM
18 | CCn1cc2c(n1)CN(C(=O)c1cc(Cc3n[nH]c(=O)c4ccccc34)ccc1F)C2 [Compound 41, 4-(3-(2-ethyl-2,4,5,6-tetrahydropyrrolo[3,4-c]pyrazole-5-carbonyl)-4-fluorobenzyl) phthalazin-1 (2H)-one] | 8.9 nM

Row | Compound | IC50
19 | O=C(c1cc(Cc2n[nH]c(=O)c3ccccc23)ccc1F)N1CC2COCC2C1 (centres unmarked) [Compound 14, 4-(4-fluoro-3-(hexahydro-1H-furo[3,4-c]pyrrole-5-carbonyl)benzyl)phthalazin-1 (2H)-one] | 46.5 nM
20 | O=C(c1cc(Cc2n[nH]c(=O)c3ccccc23)ccc1F)N1C[C@@H]2CC(F)(F)C[C@@H]2C1 [Compound 46, 4-(3-((3 aR,6aS)-5,5-difluorooctahydrocyclopenta[c]pyrrole-2-carbonyl)-4-fluorobenzyl)phthalazin-1(2H)-one] | 27.8 nM
21 | CC(C)n1ncc2c1CN(C(=O)c1cc(Cc3n[nH]c(=O)c4ccccc34)ccc1F)C2 [Compound 43, 4-(4-fluoro-3-(1-isopropyl-1,4,5,6-tetrahydropyrrolo[3,4-c]pyrazole-5-carbonyl)benzyl)phthalazin-1 (2H)-one] | 55.1 nM
22 | CN1CC2=C(C1)CN(C(=O)c1cc(Cc3n[nH]c(=O)c4ccccc34)ccc1F)C2 [Compound 33, 4-(4-fluoro-3-(5-methyl-1,2,3,4,5,6-hexahydropyrrolo[3,4-c]pyrrole-2-carbonyl)benzyl) phthalazin-1 (2H)-one] | 28.5 nM
23 | O=C(c1cc(Cc2n[nH]c(=O)c3ccccc23)ccc1F)N1CC2CN(Cc3ccc(F)cc3F)CC2C1 (centres unmarked) [Compound 19, 4-(3-(5-(2,4-difluorobenzyl)octahydropyrrolo[3,4-c]pyrrole-2-carbonyl)-4-fluorobenzyl)phthalazin-1(2H)-one] | 34.4 nM
24 | O=C(c1cc(Cc2n[nH]c(=O)c3ccccc23)ccc1F)N1CC2=C(CNC2)C1 [Compound 31, 4-(4-fluoro-3-(1,2,3,4,5,6-hexahydropyrrolo[3,4-c]pyrrole-2-carbonyl)benzyl) phthalazin-1(2H)-one] | 24.2 nM
25 | Mixture of 4-(4-fluoro-3-(1-methyl-1,4,5,6-tetrahydropyrrolo[3,4-c]pyrazole-5-carbonyl)benzyl)phthalazin-1(2H)-one compound with 4-(4-fluoro-3-(2-methyl-2,4,5,6-tetrahydropyrrolo[3,4-c]pyrazole-5-carbonyl)benzyl)phthalazin-1(2H)-one (1:3) [Compound 28] | 20.7 nM
26 | O=C(c1cc(Cc2n[nH]c(=O)c3ccccc23)ccc1F)N1Cc2cscc2C1 [Compound 30, 4-(3-(5,6-dihydro-4H-thieno[3,4-c]pyrrole-5-carbonyl)-4-fluorobenzyl)phthalazin-1(2H)-one] | 9.87 nM
27 | CCn1ncc2c1CN(C(=O)c1cc(Cc3n[nH]c(=O)c4ccccc34)ccc1F)C2 [Compound 42, 4-(3-(1-ethyl-1,4,5,6-tetrahydropyrrolo[3,4-c]pyrazole-5-carbonyl)-4-fluorobenzyl) phthalazin-1 (2H)-one] | 48.6 nM
28 | O=C(c1cc(Cc2n[nH]c(=O)c3ccccc23)ccc1F)N1CC2CCCC2C1 (centres unmarked) [Compound 23, 4-(4-fluoro-3-(octahydrocyclopenta[c]pyrrole-2-carbonyl)benzyl)phthalazin-1(2H)-one] | 67.8 nM
29 | O=C(NC1C[C@@H]2CN(C(=O)c3cc(Cc4n[nH]c(=O)c5ccccc45)ccc3F)C[C@@H]2C1)C1CC1 (stereo partly drawn) [Compound 48, N-((3 aR,6aS)-2-(2-fluoro-5-((4-oxo-3,4-dihydrophthalazin-1-yl)methyl)benzoyl)octahydrocyclopenta[c]pyrrol-5-yl)cyclopropanecarboxamide] | 74.5 nM
30 | O=C(c1cc(Cc2n[nH]c(=O)c3ccccc23)ccc1F)N1CC2CNCC2C1 (centres unmarked) [Compound 15, 4-(4-fluoro-3-(octahydropyrrolo[3,4-c]pyrrole-2-carbonyl)benzyl)phthalazin-1(2H)-one] | 11.6 nM
31 | O=C(c1cc(Cc2n[nH]c(=O)c3ccccc23)ccc1F)N1CC2CN(C(F)F)CC2C1 (centres unmarked) [Compound 38, 4-(3-(5-(difluoromethyl)octahydropyrrolo[3,4-c]pyrrole-2-carbonyl)-4-fluorobenzyl) phthalazin-1 (2H)-one] | 91 nM
32 | O=C(c1cc(Cc2n[nH]c(=O)c3ccccc23)ccc1F)N1CC2CN(Cc3ccccc3)CC2C1 (single isomer, unassigned) [Compound 9, 4-(3-(5-benzyloctahydropyrrolo[3,4-c]pyrrole-2-carbonyl)-4-fluorobenzyl)phthalazin-1(2H)-one hydrochloride] | 24 nM
33 | CN1CC2CN(C(=O)c3cc(Cc4n[nH]c(=O)c5ccccc45)ccc3F)CC2C1 (centres unmarked) [Compound 21, 4-(4-fluoro-3-(5-methyloctahydropyrrolo[3,4-c]pyrrole-2-carbonyl)benzyl)phthalazin-1(2H)-one] | 22.6 nM
34 | CS(=O)(=O)N1CC2CN(C(=O)c3cc(Cc4n[nH]c(=O)c5ccccc45)ccc3F)CC2C1 (centres unmarked) [Compound 16, 4-(4-fluoro-3-(5-(methylsulfonyl)octahydropyrrolo[3,4-c]pyrrole-2-carbonyl)benzyl) phthalazin-1 (2H)-one] | 104 nM
35 | O=C(c1cc(Cc2n[nH]c(=O)c3ccccc23)ccc1F)N1CC2CN(Cc3ccc(F)cc3)CC2C1 (centres unmarked) [Compound 24, 4-(4-fluoro-3-(5-(4-fluorobenzyl)octahydropyrrolo[3,4-c]pyrrole-2-carbonyl)benzyl) phthalazin-1 (2H)-one] | 9.85 nM
